Laboratory results: paper PMC5000617, “Antiproliferative and Pro-Apoptotic Effect of Novel Nitro-Substituted Hydroxynaphthanilides on Human Cancer Cell Lines” (International Journal of Molecular Sciences, 2016)

What was measured:
cyclin B1 [1] = test: Western blot of cyclin B1 in MCF-7 cells; type: cell-based, human; details: MCF-7, 24 h
Procedure: (§1) Additionally, the cell cycle analysis allows determining the presence of a subdiploid cell population as a characteristic marker of cells with fractional DNA content. A significant increase (p < 0.001) of the sub-G1 peak was found only after the treatment with 5 µM of compound 2 in THP-1 cells, where an approximately eight-fold increase was observed compared to the drug-free control (Figure 4).
(§2) For Western blotting, cells were washed with PBS and lysed in lysis buffer (100 mM Tris-HCl, pH = 6.8; 20% glycerol; 1% SDS) containing protease and phosphatase inhibitor cocktails. Protein concentration was measured using Roti®-Quant universal (Carl Roth, Karsruhe, Germany) according to the manufacturer’s instructions. Cell lysates were supplemented with bromophenol blue (final concentration 0.01% (w/v)) and β-mercaptoethanol (final concentration 1% (v/v)) prior to being heated for 5 min at 95 °C. Equal amounts of protein (10 μg) were loaded into a 12% polyacrylamide gel, separated by SDS-polyacrylamide gel electrophoresis and subsequently electrotransferred onto nitrocellulose membranes. Reversible Ponceau S. staining was performed to assess equal sample loading. […] The intensity of bands was semi-quantitatively analysed using the ImageJ software (National Institute of Mental Health, Bethesda, MD, USA).

MCF-7 cells [2] = test: Flow cytometric cell cycle analysis (PI), MCF-7; type: cell-based, human; details: MCF-7, 24 h
Procedure: (§3) In order to determine at which stage of the cell cycle these compounds induce cell growth inhibition, flow cytometric analyses of cell cycle profiles in THP-1 and MCF-7 cell lines were performed. […] Therefore, THP-1 and MCF-7 cells were treated for 24 h with the compounds at concentrations of 2.5, 5, and 10 μM, respectively. In general, we detected a qualitatively similar effect on the distribution of cells in cell cycle phases following the treatment with compounds 2 and 6 in both leukaemia and breast carcinoma cells. […] This was in concert with a simultaneous decrease in the number of cells observed in the S phase compared to the drug-free control, while the percentage of cells in the G2/M phase remained unchanged.
(§4) THP-1 and sub-confluent MCF-7 cells were treated and subsequently incubated with indicated concentrations of compounds 2 and 6 for 24 h. After the incubation, cells were washed twice in PBS (pH 7.4), fixed in 70% ethanol and stored at −20 °C overnight. Fixed cells were collected by centrifugation, and supernatant was discarded. The cell pellet was washed twice with PBS and incubated with RNaseA (0.02 mg/mL) and 0.05% (v/v) Triton X-100 in PBS for 30 min at 37 °C. After the nuclei staining with propidium iodide (PI) (0.04 mg/mL), the cell cycle distribution was analysed using a flow cytometer Cell Lab Quanta SC (Beckman Coulter, Brea, CA, USA). The quantification of cell cycle distribution was carried out using software MultiCycle AV (Phoenix Flow System, San Diego, CA, USA). A total number of 2 × 10^4 cells was analysed per sample.

THP-1 cells [3] = test: Flow cytometric cell cycle analysis (PI), THP-1; type: cell-based, human
Procedure: as §3, §4

THP-1 cells [4] = test: Erythrosin B dye exclusion viability test, THP-1; type: cell-based
Procedure: (§5) Subsequently, for the comparison of the antiproliferative and cytotoxic effects we assessed the cell viability after 24 h treatment with compounds 1–6 in both tumour cell lines using the dye exclusion test.
(§6) THP-1 human monocytic leukemia cell line, MCF-7 human breast adenocarcinoma cells and 3T3-L1 mouse embryonic fibroblast were purchased from the European Collection of Cell Cultures (ECACC, Salisbury, UK). Cells were routinely tested for the absence of mycoplasma (Hoechst 33258 staining method). THP-1 cells were maintained in RPMI 1640 culture medium containing 2 mM L-glutamine; MCF-7 and 3T3-L1 cells were cultured in DMEM medium. All of the culture media were supplemented with 10% heat-inactivated FBS and antibiotics (100 U/mL penicillin and 100 μg/mL streptomycin). Cells were maintained at 37 °C in a humidified atmosphere containing 5% CO2.
(§7) Cell proliferation was evaluated using Cell Proliferation Reagent WST-1 (2-(4-iodophenyl)-3-(4-nitrophenyl)-5-(2,4-disulfophenyl)-2H-tetrazolium) (Roche Diagnostics, Mannheim, Germany) according to the manufacturer´s instructions. THP-1 (5 × 10^4 cells/100 μL culture medium per well), MCF-7 cells (1 × 10^4 cells/100 μL per well), and 3T3-L1 (2.5 × 10^3 cells/100 μL per well) were cultured in 96-well plates in triplicate. The measurement was performed using Synergy 2 Multi-Mode Microplate Reader (BioTek, Winooski, VT, USA) after 24 h incubation of cells with tested compounds dissolved in DMSO and subsequently in RPMI 1640 to final concentration ranging 0.5–20 μM in the assays. Cell viability was assessed by dye exclusion test. THP-1 (2 × 10^5 cells/mL per well) and MCF-7 cells (8 × 10^4 cells/mL per well) were incubated in 24-well plates with the indicated concentrations of compounds for 24 h. The number of viable cells was determined using hemocytometer after their staining with a solution of erythrosin B (0.1% erythrosin B (w/v) in PBS). The assays were conducted in triplicate. The IC50 and LC50 values were calculated from fitted concentration-response curves using GraphPad Prism 5.00 software (GraphPad Software, San Diego, CA, USA).

[5] = Erythrosin B dye exclusion viability test, THP-1; type: cell-based; details: human, THP-1 cells; erythrosin B exclusion test, 24 h, mean ± SD; read-out: THP-1 LC50
Procedure: as §5, §6, §7

cyclin E1 = test: Western blot of cyclin E1 in THP-1 cells; type: cell-based, human; details: THP-1, 24 h
Procedure: as §1
For Western blotting, cells were washed with PBS and lysed in lysis buffer (100 mM Tris-HCl, pH = 6.8; 20% glycerol; 1% SDS) containing protease and phosphatase inhibitor cocktails. Protein concentration was measured using Roti®-Quant universal (Carl Roth, Karsruhe, Germany) according to the manufacturer’s instructions. Cell lysates were supplemented with bromophenol blue (final concentration 0.01% (w/v)) and β-mercaptoethanol (final concentration 1% (v/v)) prior to being heated for 5 min at 95 °C. Equal amounts of protein (10 μg) were loaded into a 12% polyacrylamide gel, separated by SDS-polyacrylamide gel electrophoresis and subsequently electrotransferred onto nitrocellulose membranes. Reversible Ponceau S. staining was performed to assess equal sample loading. Then, the membranes were blocked with 5% non-fat dry milk in TBST (10 mM Tris-HCl pH = 7.5, 150 mM NaCl, 0.1% (v/v) Tween-20) and appropriate primary and secondary antibodies were used for immunodetection. The proteins were visualized by ECL Plus reagent according to the manufacturer’s instructions. The intensity of bands was semi-quantitatively analysed using the ImageJ software (National Institute of Mental Health, Bethesda, MD, USA).

[6] = Erythrosin B dye exclusion viability test, MCF-7; type: cell-based; details: human, MCF-7 cells; erythrosin B exclusion test, 24 h, mean ± SD; read-out: MCF-7 LC50
Procedure: as §5, §6, §7

MCF-7 cells [7] = test: Erythrosin B dye exclusion viability test, MCF-7; type: cell-based; details: MCF-7, 24 h, vs control
Procedure: as §5, §6, §7

cyclin B1 [8] = test: Western blot of cyclin B1 in THP-1 cells; type: cell-based, human; details: THP-1, 24 h
Procedure: as §1, §2

Question: With `O=C(Nc1cccc([N+](=O)[O-])c1)c1cc2ccccc2cc1O` [Compound 2, 3-hydroxy-N-(3-nitrophenyl)naphthalene-2-carboxamide] as the molecule, how does the “total protein levels of cyclin B1” value (cyclin B1 [1]) read?
Answer: The value was “total protein levels of cyclin B1 were not changed”.

Question: And the “distribution of cells in cell cycle phases” value (MCF-7 cells [2])?
Answer: The value was “induced accumulation of cells in G1 phase”.

Question: And the “sub-G1 / sub-diploid population” value (MCF-7 cells [2])?
Answer: Its value is “did not induce any elevation of the sub-G1 peak”.

Question: What about the “increase of sub-G1 peak compared to drug-free control” value (THP-1 cells [3]; THP-1, 5 µM, 24 h, p < 0.001) of the same molecule?
Answer: Its value is “approximately eight-fold”.

Question: And the “distribution of cells in cell cycle phases” value (THP-1 cells [3]; THP-1, 24 h)?
Answer: Its value is “induced accumulation of cells in G1 phase”.

Question: And the “LC50 compared to IC50” value (THP-1 cells [4])?
Answer: The value was 2–3 fold.

Question: And the CC50 at 24 h [5]?
Answer: The CC50 at 24 h was 7.91 ± 0.24 µM.

Question: And the “expression of cyclin E1” value (cyclin E1)?
Answer: The value was “dose-dependent decrease in expression of cyclin E1”.

Question: And the “levels of cyclin E1 low molecular weight (LMW E1) isoform” value (cyclin E1)?
Answer: Its value is “more pronounced reduction of LMW E1 isoform levels”.

Question: And the CC50 at 24 h [6]?
Answer: Its CC50 at 24 h is greater than 20 µM.

Question: What about the “effect on cell viability” value (MCF-7 cells [7]) of the same molecule?
Answer: Its value is “Neither compound 2 nor 6 reduced cell viability under 50%”.

Question: What about the “total protein levels of cyclin B1” value (cyclin B1 [8]) of the same molecule?
Answer: Its value is “total protein levels of cyclin B1 were not changed”.
